Data: patent US9066938B2, “GPBP-1 inhibition and its therapeutic use” (Fibrostatin S.L., priority 2012, dated 2015)

Columns and labels:
A549 cells = experiment: Migration assay in modified Boyden chambers; assay type: cell-based, human; conditions: 16 h
Description: FIG. 8. T12 inhibits cancer cell migration. A modified Boyden chamber was used to measure migration as described in Methods and Experimental Design. Doxorubicin was used at 1 μM and T12 at 50 μM.
Migration assays were performed using modified Boyden chambers (Transwell inserts, 6.5 mm diameter; Corning). Inserts containing polycarbonate membranes with 8 μm pores were placed into the lower chambers containing 400 μl media (DMEM:F-12 supplemented with 10% FBS, 1% penicillin-streptomycin and 2 mM glutamine). Serum-starved A549 cells were removed from culture dishes with Hanks' balanced salt solution containing 0.5% trypsin and 0.2% EDTA (Sigma), washed and suspended in media without serum (DMEM:F-12, 1% penicillin-streptomycin and 2 mM glutamine) at 10^6 cells/mL. Two-hundred fifty thousand (250,000) cells in 250 μL media without serum were added to the top of each migration chamber and allowed to migrate to the underside of the porous membrane for 16 h. T12 and doxorubicin were present in the media of both top and bottom compartments throughout the assay. […] The detached cells were labeled with Calcein AM Fluorescent Dye (4 μg/ml) for 90 min at 37° C. and the fluorescence was measured at 494/517 nm (Abs/Em).

[1] = system: CDKN1A (p21) and DDIT3 (CHOP) genes; experiment: qPCR of CDKN1A (p21) and DDIT3 (CHOP) mRNA in A549 cells; assay type: cell-based, human; conditions: doxorubicin 1 μM, T12 50 μM, 24 h
Description: FIG. 3. T12 enhances doxorubicin-induced expression of CDKN1A (p21) and DDIT3 (CHOP) genes in A549 cells. Cells were treated with doxorubicin (1 μM) and/or T12 (50 μM) for 24 h. Total RNA was isolated, reverse-transcribed, and CDKN1A (p21) and DDIT3 (CHOP) mRNA levels assessed by qPCR using TaqMan™ commercial probes and primers. Results are expressed as relative quantity (RQ) respect to untreated cells. A representative assay is shown.
Total RNA from cell samples was extracted using Ilustra RNAspin™ Mini (Ge Healthcare) according to the manufacturer's instructions. One μg of total RNA from each sample was converted to cDNA (RT) using the High Capacity cDNA Reverse Transcription Kit (Applied Biosystems). For Real-Time PCR (qPCR), 1.5 μl of cDNA was mixed with TaqMan™ Gene Expression Master Mix and the specific TaqMan™ probes and primers for COL4A3BP/GPBP, DDIT3/CHOP, CDKN1A/p21, PROM1/CD133, NANOG, MMP10 and HPRT1, all from Applied Biosystems. Hypoxanthine-guanine phosphoribosyltransferase (HPRT1) primer was used as endogenous control. qPCR was performed on a StepOnePlus™ Real-Time PCR system (Applied Biosystems) according to manufacturer's recommendations. The relative levels of mRNAs were calculated with the ΔΔCt method using untreated samples as reference (the comparative Ct method).

[2] = Synergism of T12 with paclitaxel (no details given); conditions: T12 plus paclitaxel
[3] = system: ovarian cancer cells (OVCAR-3); experiment: Response of OVCAR-3 ovarian cancer cells to T12; assay type: cell-based; conditions: cells that did not increase GPBP expression in response to doxorubicin
[4] = system: PARP cleavage in A549 cells; experiment: Flow cytometry of cleaved PARP (caspase-3-mediated apoptosis) in A549 cells; assay type: cell-based, human; conditions: doxorubicin 1 μM, T12 50 μM, 36 h
Description: FIG. 5. T12 enhances doxorubicin-induced caspase 3-mediated apoptosis. A549 cells were incubated with doxorubicin (1 μM) and/or T12 (50 μM) for 36 h. Subsequently, cells were stained with a PE conjugated antibody specific for human PARP-cleaved fragments and further analyzed by flow cytometry. Data are expressed as fold respect to untreated control cells. Shown is a representative experiment.
Caspase-3 activation in A549 cells was evaluated by flow cytometry using a human anti-cleaved PARP antibody conjugated to PE (BD Biosciences). Briefly, after treatment, the cells were collected by centrifugation and suspended in Perm/Wash™ (BD Biosciences) buffer for 20 min, washed and then incubated for 30 min with the antibody. Subsequently, the cells were rinsed and further analyzed by flow cytometry (BD FacsVerse™ cytometer, BD Biosciences).

COc1ccc(-c2ccc(-c3cccc(C)c3)c(C)c2)c(CCC(=O)O)c1 [T12, 3-[4″-methoxy-3,2′-dimethyl-(1,1′;4′,1″)terphenyl-2″-yl] propionic acid]
cell migration of A549 cells, T12 with additional doxorubicin (A549 cells; T12 50 μM plus doxorubicin 1 μM): virtually arrested | cell migration of A549 cells (A549 cells; T12 50 μM): sharply inhibited | induction of CDKN1A (p21) and DDIT3 (CHOP) expression together with doxorubicin [1]: synergistic | synergism of T12 with paclitaxel [2]: synergistic | responsiveness of OVCAR-3 cells to the compound [3]: not responsive | doxorubicin-induced PARP cleavage [4]: enhanced
